PMC8878317, “Chemogenomics identifies acetyl-coenzyme A synthetase as a target for malaria treatment and prevention” (Cell Chemical Biology, 2022)

Columns and labels:
[1] = target: PfAcAS WT (Plasmodium falciparum, UniProt C6KTB4); assay: EnzChek assay, recombinant PfAcAS WT (steady-state kinetics and IC50); assay type: biochemical, P. falciparum
Experimental: (§1) Steady-state kinetic measurements were conducted at room temperature using a PheraStar plate reader (BMG). The first step of the reaction of PfAcAS, which produces inorganic pyrophosphate (PPi) that is converted to two molecules of inorganic phosphate using a pyrophosphatase enzyme, was continuously monitored using the EnzChek Phosphate Assay Kit, which gives an absorbance readout at 360 nm (Figure 4A) ([Webb, 1992]). […] By adding CoA, the reaction rapidly proceeds to the second step resulting in further release of pyrophosphate, making the EnzChek assay a suitable option to continuously monitor the activity of PfAcAS. Typical kinetic assays were carried out in clear, flat-bottom, polystyrene, 384-well plates (Greiner) in an 80 μL reaction volume containing 100 mM HEPES (pH7.4), 100 mM NaCl, 250 mM KCl, 50 mM MgCl2, 1 mM DTT, 0.004% Tween 20, 0.5 U/mL pyrophosphatase, 0.1 mM MESG, 0.5 U/mL PNP, 2 mM ATP, 2 mM acetate, 0.5 mM CoA and 5 nM recombinant PfAcAS WT or 10 nM recombinant PfAcAS A597V or T648M. Assays were performed by adding 40 μL of a 2-times concentrated substrate mixture including MESG to all wells, and the reactions started by adding 40 μL of a 2-times concentrated reaction mixture containing all other components. The reactions were carried out for 2 to 4 hr with absorbance readings at 360 nm every two to four minutes. Reaction rates were extracted from the linear phase of activity, usually using 10 to 20 points between times of 30 and 100 min of the reactions. Using a phosphate standard curve obtained under the same buffer conditions used for the PfAcAS reactions (Figure S5A), the rates were then converted to velocity per second, conversion of one nanomolar of phosphate, per nanomolar of enzyme, per second. The substrates Km values were determined by varying the concentration of one of the substrates at saturating concentration of the other two substrates. Steady-state data were fitted using the nonlinear, least-squares, curve-fitting programs of Sigma-Plot for Windows, version 14.0. Individual saturation curves were fit to Equation 1(Equation 1) v=VS/K+S where V is the maximal velocity, S is the substrate concentration and K is the Michaelis constant for the substrate (Km). Individual saturation curves displaying substrate inhibition were fit to Equation 2(Equation 2) v=VS/K+S×(1+S/Ks) where Ks is the substrate inhibition constant.
(§2) To determine the steady-state inhibition parameters and patterns associated with both inhibitors, PfAcAS activity was studied in the presence of variable concentrations of one substrate, ATP, acetate or CoA, fixed saturating concentration of the other two substrates (acetate and CoA, ATP and CoA, or ATP and acetate) and several fixed concentrations of inhibitor. Assay ready plates containing different concentrations of inhibitor were prepared using an Echo 550 acoustic dispenser (Labcyte Inc.). The assays were carried out as described in the previous section. […] For better comparison between both inhibitors and proteins, the ymin was fixed to zero and the ymax to 100. Inhibition data showing linear, competitive patterns in double-reciprocal plots were fit to Equation 4(Equation 4) v=VS/K(1+I/Ki)+S where Ki is the dissociation constant for the enzyme-inhibitor complex. Inhibition data showing linear, mixed inhibition patterns in double-reciprocal plots were fit to Equation 5(Equation 5) v=VS/K(1+I/Kis)+S(1+I/Kii) where Kis is the dissociation constant for the free enzyme-inhibitor complex and Kii is the dissociation constant for the enzyme-substrate-inhibitor complex. Inhibition data showing linear, uncompetitive patterns in double-reciprocal plots were fit to Equation 6(Equation 6) v=VS/K+S(1+I/Ki)

[2] = test system: histone acetylation in P. falciparum 3D7-T648M; assay: Histone acetylation Western blot, drug-selected 3D7-T648M; assay type: cell-based; details: trophozoites, 3 h exposure
Experimental: Synchronous trophozoite-stage (24-32hr post-invasion) cultures at 3–5% parasitemia and 2% hematocrit in complete medium were exposed to test compounds for 3 hr at 37°C. […] DMSO was tested at 0.1% as the vehicle-only control. Following drug exposure, parasites were isolated via saponin lysis ice-cold 0.1% saponin in phosphate-buffered saline (PBS). Isolated parasites were washed 3x in ice-cold PBS containing protease inhibitor cocktail (cOmplete mini, Roche) and lysed in 1x Laemmli Sample Buffer (Biorad) with 5% beta-mercaptoethanol (Sigma-Aldrich). Samples were heated at 99°C for 10 min before centrifugation. Equal quantities of solute were separated on Protean TGX Precast Gels (4–20% gradient) in Tris-SDS-glycine buffer, transferred to nitrocellulose membrane by iblot (Invitrogen), and blocked for 1h in tris-buffered saline (TBS) with 5% skim milk powder. Blocked membranes were probed with antibodies recognising tetra-acetylated H4 (H4ac4, Sigma-Aldrich 06–866), H4K8ac (CST #2594), H3K9ac (CST #9649) or H3 (CST #4499), at 1:1000 dilution, and PfBiP ([Shonhai et al., 2007]) (at 1:5000 dilution) in 3% milk powder TBS with 0.1% Tween 20 at 4°C overnight and with 800CW goat α-rabbit IgG (Licor) at 1:10,000 dilution. Membranes were visualised using a Licor Odyssey CLX imaging system and quantified using ImageJ.

[3] = test system: P. falciparum parasites; assay: Isobologram analyses (fractional IC50 of compound combinations); assay type: cell-based; details: combination with TSA
[4] = target: T1, PfAcAS A597V (Plasmodium falciparum, UniProt C6KTB4, A597V); assay: EnzChek assay, recombinant PfAcAS A597V; assay type: biochemical, P. falciparum
T1 sequence (C6KTB4 1-997 A597V): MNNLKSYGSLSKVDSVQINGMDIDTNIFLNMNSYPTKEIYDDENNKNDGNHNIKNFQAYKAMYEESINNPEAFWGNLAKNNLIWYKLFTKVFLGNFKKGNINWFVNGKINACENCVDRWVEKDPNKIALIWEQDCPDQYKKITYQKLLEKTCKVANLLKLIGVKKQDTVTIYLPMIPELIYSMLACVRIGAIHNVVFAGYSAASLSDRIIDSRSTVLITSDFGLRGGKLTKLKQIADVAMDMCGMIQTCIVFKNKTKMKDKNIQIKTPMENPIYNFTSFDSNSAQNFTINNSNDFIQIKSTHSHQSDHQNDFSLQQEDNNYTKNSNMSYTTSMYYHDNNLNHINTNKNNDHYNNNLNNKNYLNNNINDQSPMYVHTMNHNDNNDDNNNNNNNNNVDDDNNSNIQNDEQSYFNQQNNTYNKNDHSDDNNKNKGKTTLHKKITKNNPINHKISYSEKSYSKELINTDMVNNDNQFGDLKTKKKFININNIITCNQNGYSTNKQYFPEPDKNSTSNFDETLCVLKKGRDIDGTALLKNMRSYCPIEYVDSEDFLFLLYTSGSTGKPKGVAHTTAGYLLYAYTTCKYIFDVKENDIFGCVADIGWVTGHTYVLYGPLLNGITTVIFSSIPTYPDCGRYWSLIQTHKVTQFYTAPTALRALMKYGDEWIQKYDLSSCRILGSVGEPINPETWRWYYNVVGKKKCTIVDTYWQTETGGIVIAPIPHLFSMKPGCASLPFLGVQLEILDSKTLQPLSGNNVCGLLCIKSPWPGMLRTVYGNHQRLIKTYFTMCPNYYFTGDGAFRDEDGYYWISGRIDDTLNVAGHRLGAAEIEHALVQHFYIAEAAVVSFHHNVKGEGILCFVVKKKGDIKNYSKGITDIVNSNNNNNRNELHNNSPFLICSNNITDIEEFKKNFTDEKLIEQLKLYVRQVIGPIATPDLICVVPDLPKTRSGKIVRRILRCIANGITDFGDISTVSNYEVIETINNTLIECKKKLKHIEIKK
Experimental: as §1, §2

CCN(CC)S(=O)(=O)c1ccc(Cl)c(C(=O)Nc2ccc3nc(C)sc3c2)c1 [MMV019721]
Hill, AcAS WT [1]: 0.85 ± 0.04 | IC50 [1]: 73 ± 4 nM | histone acetylation in 3D7-T648M parasite line [2]: little to no measurable effect | interaction in isobologram analyses with the HDAC inhibitor TSA [3]: strongly antagonistic | Hill, AcAS A597V [4]: 0.58 ± 0.05 | IC50 [4]: 6900 ± 1200 nM

O=C(NNC(=O)c1csnn1)c1ccc(Cl)cc1 [MMV084978]
Hill, AcAS WT [1]: 0.85 ± 0.06 | IC50 [1]: 370 ± 40 nM | histone acetylation in 3D7-T648M parasite line [2]: protection | IC50 [4]: > 100000 nM
